Data taken from patent US20120107854A1, “REAGENT FOR MEASUREMENT OF CHOLINESTERASE ACTIVITY” (NATIONAL INSTITUTE OF RADIOLOGICAL SCIENCES, priority 2009, published 2012).

What was measured:
[1] = biological target: purified human acetylcholinesterase (Homo sapiens, UniProt P22303); format: biochemical; conditions: for hydrolysis rate with Acetylcholinesterase (change in absorbance per minute): phosphate buffer 0.1 M pH 7.4, 0.1% Tween 20, absorbance at 412 nm, measured three times, average ± standard deviation; for specificity for acetylcholinesterase: acetylcholinesterase versus butyrylcholinesterase hydrolysis; for reaction order of the hydrolysis rate (time dependence): at the substrate concentration, change with time showed good linearity; for reaction order of the hydrolysis rate (time dependence) / change in absorbance at 412 nm with time: FIG. 1; for substrate quality for acetylcholinesterase: hydrolysis rate lower than acetyl thiocholine and acetyl-δ methyl-thiocholine; for change in absorbance at 412 nm with time: in 120 minutes, acetylcholinesterase
Experimental: (§1) To investigate the hydrolysis rate and specificity of each of (1a) and (2a), the hydrolysis rate in a solution of each of purified human acetylcholinesterase and purified human butyrylcholinesterase was measured by the Ellman method, and was compared with those of acetyl thiocholine and acetyl-[…]. To 3 ml of a solution of each enzyme whose concentration was adjusted with a phosphate buffer (0.1 M, pH 7.4) containing 0.1% of Tween 20, 0.1 ml of a solution (5 mM) of 5,5′-dithio-bis(2-nitrobenzoic acid) was added. To these mixtures, the substrates were respectively added in an amount of 0.02 ml (75 mM), and the absorbance (mAbs) at a wavelength of 412 nm was measured.
(§2) The values in the Table represent the changes in absorbance per minute measured three times in the form of average value±standard deviation.
The values represent the absorbance (Abs) measured three times in the form of average value±standard deviation.

[2] = biological target: purified human butyrylcholinesterase (Homo sapiens, UniProt P06276); test: Hydrolysis rate with purified human butyrylcholinesterase by the Ellman method; format: biochemical; conditions: for hydrolysis rate with butyrylcholinesterase compared with spontaneous hydrolysis in the buffer solution: comparison of Table 1 values; for hydrolysis rate with Butyrylcholinesterase (change in absorbance per minute): phosphate buffer 0.1 M pH 7.4, 0.1% Tween 20, absorbance at 412 nm, measured three times, average ± standard deviation
Experimental: as §1, §2

[3] = Spontaneous hydrolysis rate in the buffer solution (Ellman method); format: physicochemical; conditions: buffer solution without enzyme; absorbance at 412 nm; measured three times, average ± standard deviation

Sequence of purified human acetylcholinesterase (P22303 32-614): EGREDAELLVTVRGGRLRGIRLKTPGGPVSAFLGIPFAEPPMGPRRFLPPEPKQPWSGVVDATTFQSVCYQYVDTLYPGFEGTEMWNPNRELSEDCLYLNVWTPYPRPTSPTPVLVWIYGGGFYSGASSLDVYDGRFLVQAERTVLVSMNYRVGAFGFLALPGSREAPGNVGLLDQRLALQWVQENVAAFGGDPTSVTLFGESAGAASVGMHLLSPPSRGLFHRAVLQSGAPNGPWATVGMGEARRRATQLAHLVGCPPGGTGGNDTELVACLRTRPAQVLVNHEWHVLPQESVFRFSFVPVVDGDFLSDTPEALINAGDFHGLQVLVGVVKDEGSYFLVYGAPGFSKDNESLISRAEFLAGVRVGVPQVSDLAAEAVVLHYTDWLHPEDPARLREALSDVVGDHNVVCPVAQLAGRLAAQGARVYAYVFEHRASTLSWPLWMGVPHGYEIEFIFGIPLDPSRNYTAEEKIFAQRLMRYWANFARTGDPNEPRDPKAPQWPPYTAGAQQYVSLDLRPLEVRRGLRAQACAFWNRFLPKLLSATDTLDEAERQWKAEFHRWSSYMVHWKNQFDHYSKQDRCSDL
Sequence of purified human butyrylcholinesterase (P06276 29-602): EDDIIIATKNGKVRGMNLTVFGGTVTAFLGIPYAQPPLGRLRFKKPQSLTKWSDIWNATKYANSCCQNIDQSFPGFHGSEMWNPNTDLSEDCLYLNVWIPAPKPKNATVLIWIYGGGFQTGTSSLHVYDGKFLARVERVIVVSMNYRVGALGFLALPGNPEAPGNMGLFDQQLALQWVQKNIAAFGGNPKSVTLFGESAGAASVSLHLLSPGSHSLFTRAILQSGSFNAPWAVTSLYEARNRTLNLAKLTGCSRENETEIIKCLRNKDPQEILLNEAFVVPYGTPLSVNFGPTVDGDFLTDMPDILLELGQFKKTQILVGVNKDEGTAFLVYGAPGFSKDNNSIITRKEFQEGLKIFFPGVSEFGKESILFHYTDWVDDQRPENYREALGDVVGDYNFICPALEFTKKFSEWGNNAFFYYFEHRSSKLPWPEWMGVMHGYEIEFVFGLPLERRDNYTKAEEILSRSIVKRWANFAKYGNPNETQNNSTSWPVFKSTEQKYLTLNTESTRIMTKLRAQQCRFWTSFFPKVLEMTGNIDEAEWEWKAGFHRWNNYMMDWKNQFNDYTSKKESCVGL

SMILES | hydrolysis rate with Acetylcholinesterase (change in absorbance per minute) [1] | hydrolysis rate with butyrylcholinesterase compared with spontaneous hydrolysis in the buffer solution [2] | hydrolysis rate with Butyrylcholinesterase (change in absorbance per minute) [2] | spontaneous hydrolysis rate (change in absorbance per minute) [3] | specificity for acetylcholinesterase [1] | reaction order of the hydrolysis rate (time dependence) [1] | substrate quality for acetylcholinesterase [1] | change in absorbance at 412 nm with time [1]
CC(=O)SC(C)C[N+](C)(C)C (stereo not drawn) [Acetyl-β methyl-thiocholine, reference compound] | 29 ± 0.24 ΔmAbs/minute | significantly higher | 7.1 ± 0.22 ΔmAbs/minute | 0.48 ± 0.020 ΔmAbs/minute | – | – | – | –
CC(=O)SCC1CCN(C)CC1 [Compound (1a), 1-methylpiperidin-4-ylmethyl acetyl sulfide] | 3.7 ± 0.098 ΔmAbs/minute | did not show any significant difference | 0.47 ± 0.026 ΔmAbs/minute | 0.47 ± 0.0096 ΔmAbs/minute | extremely highly specific | consistent with the zero-order reaction | good substrates for acetylcholinesterase | approximately 0.4 Abs
CC(=O)SCC1CC[N+](C)(C)CC1 [Compound (2a), 1,1-dimethylpiperidin-4-ylmethyl acetyl sulfide] | 3.1 ± 0.15 ΔmAbs/minute | did not show any significant difference | 0.15 ± 0.0077 ΔmAbs/minute | 0.13 ± 0.027 ΔmAbs/minute | extremely highly specific | consistent with the zero-order reaction | good substrates for acetylcholinesterase | approximately 0.4 Abs
